In patent US12121518B2, “PARP-1 and methods of use thereof” (The Board of Supervisors of Louisiana State University and …, priority 2017, dated 2024):
Where two headings read alike, the source gives them in different places.

What was measured:
[1] = tested on: AOM/DSS-induced colon tumorigenesis; assay: AOM/DSS chronic inflammation-driven colon cancer mouse model; format: in vivo; details: AOM/DSS-treated WT mice; for colon tumor burden: vs vehicle
Procedure: The drug was administered twice weekly for the duration of the protocol. […] As stated above, the AOM/DSS colon cancer model is driven primarily by chronic inflammation; thus, we next assessed mice sera for inflammatory factors TNF-α, IL-6, and MCP-1, which are highly relevant to human colon carcinogenesis.
Tumor models, assessment of tumor burden and adoptive transfer—For the azoxymethane/Dextran Sulfate Sodium (AOM/DSS)-induced tumorigenesis model, six to eight weeks old WT, PARP-1^+/− or PARP-1^−/− mice received a single dose (10 mg/kg) of AOM, i.p., followed by 4 cycles of 1.25% DSS provided in drinking water. Each cycle consisted of a week of DSS water separated by 2 weeks of regular water. […] At week 22 after the start of the experimental protocol, mice were sacrificed by CO2 asphyxiation. Colons, spleens, and blood were collected for analysis. Colons were opened longitudinally and washed with PBS to assess the tumor burdens using a dissecting microscope. For the APC^Min-mediated model, APC^Min/+, APC^Min/+PARP-1^+/−, or APC^Min/+PARP-1^−/− male mice were sacrificed at 16 weeks of age. […] Sacrificed mice were processed as described above except that the tumor burden was assessed along the whole intestinal track. Tumors were counted and divided in groups lower than 2 mm, 2-4 mm, and tumors bigger than 4 mm in diameter.
Tissue processing, immunohistochemistry, immunofluorescence and cytokines measurement—Some tissues were fixed in buffered formalin (10%), paraffin-embedded, then sectioned. Serial sections were subjected to H&E staining, immunohistochemistry (IHC) or immunofluorescence, as described (33), with antibodies to PCNA (Novusbio, Littleton, CO), COX-2 (Santa Cruz Biotechnology, Santa Cruz, CA), ICAM-1 (Santa Cruz Biotechnology), CD8 (Santa Cruz Biotechnology), or Gr1 (eBioscience, San Diego, USA) as previously described (34). […] Cytokine levels were assessed for TNF-α (ELM-TNFα-1), IL-6 (ELM-IL-6-1), and MCP-1 (ELM-MCP1) by ELISA (all from RayBiotech, Norcross, GA) according to the manufacturer's instructions and recommendations.

KOPT-K1 cells = assay: KOPT-K1 cell viability (Trypan exclusion assay); format: cell-based; details: ultra-low doses, 2.5 days
Procedure: (§1) Cell viability was assessed 2.5 days after treatment by Trypan exclusion assay. Statistics are not included.
as §1
The ultimate goal of this therapy is maximal inhibition of PARP to achieve “synthetic lethality” taking advantage of the inability of BRCA-deficient cancer cells to repair DNA. […] This was tested in three different leukemia cell lines.

ARG-1, iNOS, COX2 = assay: Immunoblot of ARG-1, iNOS, COX2 and related factors in bone marrow-derived MDSCs; format: cell-based, mouse
Description: (I) Positive control for PARP-1 trapping.
Cell fractionation, protein extraction and immunoblot analysis—Tumor tissues or cells were harvested and homogenized in RIPA lysis buffer (Santa Cruz Biotechnology) containing a cocktail of protease and phosphatase inhibitors on ice. Nuclear fractions were isolated as described (35) and the remaining chromatin pellets were washed then suspended in an isotonic buffer followed by sonication. […] Protein expression signals developed by ECL (Pierce, ThermoFisher Scientific) were determined by a G:Box Gel Image Analysis System (Syngene, Cambridge, UK) equipped with the GeneSys image capture software.

[2] = tested on: bone marrow-derived MDSCs; details: co-culture without drug
allograft breast cancer = details: 50 mg/kg daily; cited from earlier work
steroid-resistant asthma = assay: Ovalbumin/LPS/IFNγ-based mouse model of steroid-resistant asthma; format: in vivo; details: 5 mg/kg
Procedure: (§2) Balb/c mice were sensitized by i.p. injection of 20 μg of Ova in 2.25 mg aluminium hydroxide on days 1 and 14. Steroid resistance was induced by intranasal instillation of Lps (10 μg/mouse) on day 27. Mice were treated with s.c injection of dexmethasone (5 mg/kg) on days 29 and 30. Mice were challenged with aerosolized 1% OVA on days 28, 29, 30 for 20 minutes. Airway hyper responsiveness was measured using plesthesmography 24 hours after the last OVA challenge. Statistics are not included.
as §2, with “Balb I c” for “Balb/c”, “µg/mouse)” for “μg/mouse)”, “All mice were euthanized 48” for “Airway hyper responsiveness was measured using plesthesmography 24”, “challenge then subjected to broncholaveolar lavage. Inflammatory cells were differentiated and assessed using Diff Quick staining.” for “challenge.”
as §2, with “All mice were euthanized 48” for “Airway hyper responsiveness was measured using plesthesmography 24”, “challenge. Cytokines were measured in the collected serum and BAL fluid using multiplex assay. And IgE production was assessed busing sandwich ELISA.” for “challenge.”
Objective: To investigate whether PARP inhibition could restore steroid sensitivity to block LPS/IFN-γ-induced neutrophilia and AHR in steroid-resistant asthma model of the disease. Methods: An ovalbumin/LPS/IFNγ-based model of steroid-resistant murine asthma and an airway epithelial cell culture system were used in this study.

[3] = tested on: steroid-resistant leukemia cells; assay: Steroid-resistant leukemia cells: cell killing and NOTCH levels; format: cell-based; details: 4 nM
perforin = assay: Perforin immunoblot in CD3/CD28-stimulated spleen CD3+ T cells; format: cell-based; details: 3 days
Procedure: CD3^+ T cells were isolated from spleen then stimulated with antibodies to CD3 and CD28 for 3 days. Protein extracts were analyzed by immunoblotting with antibodies to perforin (a marker of T cell function) or GAPDH. Note that the 4 nM concentration increased, while the 1 mM decreased, perforin levels.

SMILES: O=C(c1cc(Cc2n[nH]c(=O)c3ccccc23)ccc1F)N1CCN(C(=O)C2CC2)CC1 [olaparib]
- colon tumor burden ([1]; 5 mg/kg i.p. twice weekly): significantly reduced the tumor burden
- colon tumor burden ([1]; 25 mg/kg i.p. twice weekly): significantly reduced the tumor burden
- colitis (colonic mucosa, H&E) ([1]; 5 or 25 mg/kg): notable protection
- steroid resistance (viability with dexamethasone) (KOPT-K1 cells): reverse steroid resistance
- increase in ARG-1, iNOS and COX2 during MDSC differentiation (ARG-1, iNOS, COX2; 4 nM, single treatment 24 h after plating): sufficient to prevent the increase in ARG-1, iNOS, and COX2
- ARG-1 and iNOS in MDSCs stimulated by co-culture with MC-38 cells (ARG-1, iNOS, COX2; low and high concentrations (4 nM, 1 μM)): inhibitory effects
- overall levels of STAT3 (and phosphorylated forms) (ARG-1, iNOS, COX2; low concentration 4 nM): increased the overall levels of STAT3
- suppressive activity of MDSCs on T-cell proliferation ([2]; 4 nM): significantly reduced
- suppressive activity of MDSCs on T-cell proliferation ([2]; high concentration 5 μM): blocked the function of MDSCs completely
- suppressive activity of MDSCs on T-cell proliferation ([2]; moderate concentration 0.1 μM): blocked the function of MDSCs completely
- effect on anti-PD1 immunotherapy (allograft breast cancer): enhances anti-PD1 immunotherapy
- OVA-specific IgE secretion in BALF and serum (steroid-resistant asthma): marked reduction in OVA-specific IgE secretion
- Th2 cytokine production (steroid-resistant asthma): marked reduction in Th2 cytokine production
- established steroid-resistant asthma manifestation (steroid-resistant asthma): reversed the established steroid-resistant asthma manifestation in mice
- infiltration of inflammatory cells into the airways (steroid-resistant asthma): blocked the infiltration of inflammatory cells into the airways
- sensitivity of the cells to dexamethasone [3]: completely reversed sensitivity of the cells to dexamethasone
- perforin levels (marker of T cell function) (perforin; 4 nM): increased
- perforin levels (marker of T cell function) (perforin): decreased
